# Source: patent US20250186325A1, “COMPOSITIONS OF ASCORBIC ACID SALTS” (SHISEIDO COMPANY, LTD., priority 2023, published 2025)
# Experiment: Assay of SAP and AA2G by HPLC (ascorbic acid derivative loss)
# Format: physicochemical
# Settings: in FL#1, HPLC
# From the text: The amount of ascorbic acid derivative content in a composition can be determined using a wide range of techniques including, but not limited to: titrimetric, spectrophotometric, electrochemical, fluorimetric, enzymatic and chromatographic. Methods for determining ascorbic acid derivative content in a topical composition can be complicated/confounded by the presence of excipients or other antioxidant agents (e.g., agents for stabilizing Vitamin C), as well as degradation products. Of the above-listed methods, high performance liquid chromatography may be preferred. See, A M Maia et al., “Validation of HPLC stability-indicating method for Vitamin C in semisolid pharmaceutical/cosmetic preparations . . . ” Talanta Vol. 71, pp. 639-643 (2007).
# In addition, an assay of SAP and AA2G were analyzed by HPLC.
compound,measurement,setting,value
"O=C1O[C@H]([C@@H](O)CO)C(O)=C1O[C@H]1O[C@H](CO)[C@@H](O)[C@H](O)[C@H]1O [AA2G, ascorbyl glucoside]",% Loss @25° C. (4 weeks),25° C.,−1.00%
same,% Loss @37° C. (4 weeks),37° C.,−1.00%
same,% Loss @40° C. (4 weeks),40° C.,−1.00%
same,% Loss @45° C. (4 weeks),45° C.,0%
